Source: patent publication US20190231788A1, “COMPOSITIONS COMPRISING TIMOLOL AND AN ANTI-INFLAMMATORY AGENT” (Almirall, S.A., priority 2016, published 2019)

How the values were obtained:
TPA-induced ear oedema [1] = details: topical 0.2%; mice; cited from earlier work
TPA-induced ear oedema [2] = assay: TPA-induced ear oedema model in Balb/c mice, single topical application; format: in vivo
Description: Evaluation of the Anti-Oedema Effect of Ivermectin, Praziquantel and Timolol and Combinations of Timolol with Ivermectin or Praziquantel after a Single Topical Application in the TPA-Induced Ear Oedema Model in Balb/c Mice.
The oedema is induced by means of a single application to the right ear of the mouse of 10 μl of a solution of TPA (phorbol 12-myristate 13-acetate) in acetone at 0.01%. The test compounds are diluted in acetone and applied with TPA. The weight of the mouse ears is measured at T+6 h and the weight of the left ear is subtracted from the one of the right ear.
Treatments: • A. Ivermectin is applied at a concentration of 0.1-0.3-1%, • B. Praziquantel is applied at a concentration at 0.3-1-3% • C. Timolol is applied at a concentration at 0.2-0.5-1%.
For combination studies Ivermectin alone is applied at a concentration of 0.3%, praziquantel alone is applied at 1% and timolol alone is applied at 0.5%. These same strengths are used in the combinations.
Each graph represents the average weight of the ear oedema of four different groups of treated animals. Each group includes 6 animals. Numbers above the bars indicate the percentage inhibition of the corresponding group of treated animals vs the control group.

[3] = dose-response study (FIGS. A-C), 0.3% in acetone applied with TPA, ear weight at T+6 h
[4] = dose-response study (FIGS. A-C), 1% in acetone applied with TPA, ear weight at T+6 h

## Brc1c(NC2=NCCN2)ccc2nccnc12 [brimonidine]
TPA-induced ear oedema [1]
  inhibition of TPA-induced ear oedema: 50%

## CC[C@H](C)[C@H]1O[C@]2(CC[C@@H]1C)C[C@@H]1C[C@@H](C/C=C(\C)C(O[C@H]3C[C@H](OC)C(O[C@H]4C[C@H](OC)[C@@H](O)[C@H](C)O4)[C@H](C)O3)[C@@H](C)/C=C/C=C3\CO[C@@H]4[C@H](O)C(C)=C[C@@H](C(=O)O1)[C@]34O)O2 (some centres unmarked) [ivermectin, 22,23-dihydroavermectin B1a]
TPA-induced ear oedema [2]; combination study FIG. 1, ivermectin alone at 0.3%, T+6 h
  inhibition of ear oedema vs control group: 37%
TPA-induced ear oedema [2]; dose-response study (FIGS. A-C), 0.1% in acetone applied with TPA, ear weight at T+6 h
  inhibition of ear oedema vs control group: 20%
TPA-induced ear oedema [2]; [3]
  inhibition of ear oedema vs control group: 43%
TPA-induced ear oedema [2]; [4]
  inhibition of ear oedema vs control group: 82%

## CC(C)(C)NC[C@H](O)COc1nsnc1N1CCOCC1 [timolol, (S)-1-(tert-butylamino)-3-[(4-morpholin-4-yl-1,2,5-thiadiazol-3-yl)oxy]propan-2-ol]
TPA-induced ear oedema [2]; combination study FIG. 1, timolol alone at 0.5%, T+6 h
  inhibition of ear oedema vs control group: 30%
TPA-induced ear oedema [2]; combination study FIG. 2, timolol alone at 0.5%, T+6 h
  inhibition of ear oedema vs control group: 16%
TPA-induced ear oedema [2]; dose-response study (FIGS. A-C), 0.2% in acetone applied with TPA, ear weight at T+6 h
  inhibition of ear oedema vs control group: 6%
TPA-induced ear oedema [2]; dose-response study (FIGS. A-C), 0.5% in acetone applied with TPA, ear weight at T+6 h
  inhibition of ear oedema vs control group: 23%
TPA-induced ear oedema [2]; [4]
  inhibition of ear oedema vs control group: 14%

## O=C(C1CCCCC1)N1CC(=O)N2CCc3ccccc3C2C1 (racemic) [praziquantel, (RS)-2-(Cyclohexylcarbonyl)-1,2,3,6,7,11b-hexahydro-4H-pyrazino[2,1-a]isoquinolin-4-one]
TPA-induced ear oedema [2]; combination study FIG. 2, praziquantel alone at 1%, T+6 h
  inhibition of ear oedema vs control group: 42%
TPA-induced ear oedema [2]; [3]
  inhibition of ear oedema vs control group: 15%
TPA-induced ear oedema [2]; [4]
  inhibition of ear oedema vs control group: 48%
TPA-induced ear oedema [2]; dose-response study (FIGS. A-C), 3% in acetone applied with TPA, ear weight at T+6 h
  inhibition of ear oedema vs control group: 91%
